In data set [1] the test system is HepG2. Briefly: Antiproliferative activity against human HepG2 cells assessed as reduction in cell viability incubated for 72 hrs by MTT assay. It counts as functional, cell-based. To be noted: HepG2, 72 h. For orientation: Tetrazolium dyes change colour on reduction, which living cells bring about.
In another data set the test system is Vero. Put plainly: Cytotoxicity against African green monkey Vero cells incubated for 24 hrs by CellTiter-Glo assay. It counts as toxicity, cell-based, Chlorocebus sabaeus. Background: Cellular ATP, detected with luciferase, serves as a proxy for viable cell number.
In data set [2] the test system is HepG2. Put plainly: Cytotoxicity against human HepG2 cells assessed as reduction in cell viability. Type of data set: functional, cell-based.
For a further data set, the system named is B16-F10. Briefly: Cytotoxicity against mouse B16F10 cells assessed as reduction in cell viability incubated for 48 hrs by MTT assay. It counts as functional, cell-based. The conditions noted are these: B16-F10, 48 h.
The subject of another data set is DU-145. Put plainly: Anticancer activity against human DU-145 cells assessed as cell growth inhibition measured after 48 hrs by MTT assay. It counts as functional, cell-based. To be noted: DU-145, 48 h.
Data set [3] concerns MCF7. Briefly: Anticancer activity against human MCF7 cells assessed as reduction in cell viability by MTT assay. It counts as functional, cell-based.
For another data set, the system named is HCT-116. Briefly: Anticancer activity against human HCT-116 cells assessed as reduction in cell viability by MTT assay. It counts as functional, cell-based.
A further data set deals with DLD-1. Briefly: Anticancer activity against human DLD-1 cells assessed as reduction in cell viability. It counts as functional, cell-based.
For the next data set, the system named is K562. Briefly: Growth inhibition of human K562 cells assessed as reduction in cell viability measured after 3 days by CCK-8 assay. It counts as functional. To be noted: K562, 72 h, time 3 day.
For the next data set, the system named is AGS. Put plainly: Growth inhibition of human AGS cells assessed as reduction in cell viability measured after 3 days by CCK-8 assay. Type of data set: functional. The conditions noted are these: 72 h, time 3 day.
Another data set relates to SK-OV-3. Put plainly: Growth inhibition of human SK-OV-3 cells assessed as reduction in cell viability measured after 3 days by CCK-8 assay. It counts as functional. To be noted: SK-OV-3, 72 h, time 3 day.
Another data set relates to WiDr. Briefly: Growth inhibition of human WiDr cells assessed as reduction in cell viability measured after 3 days by CCK-8 assay. It counts as functional. The conditions noted are these: 72 h, time 3 day.
The subject of data set [4] is HepG2. Briefly: Growth inhibition of human HepG2 cells assessed as reduction in cell viability measured after 3 days by CCK-8 assay. Type of data set: functional. The conditions noted are these: HepG2, 72 h, time 3 day.
Another data set deals with BXPC-3. Briefly: Growth inhibition of human BXPC-3 cells assessed as reduction in cell viability measured after 3 days by CCK-8 assay. To be noted: BXPC-3, 72 h, time 3 day. Type of data set: functional.
The next data set deals with SNU1. Put plainly: Growth inhibition of human SNU1 cells assessed as reduction in cell viability measured after 3 days by CCK-8 assay. It counts as functional. The conditions noted are these: SNU1, 72 h, time 3 day.
The next data set deals with OVCAR-8. Briefly: Growth inhibition of human OVCAR-8 cells assessed as reduction in cell viability measured after 3 days by CCK-8 assay. Type of data set: functional. The conditions noted are these: OVCAR-8, 72 h, time 3 day.
For the next data set, the system named is PANC-1. Briefly: Growth inhibition of human PANC-1 cells assessed as reduction in cell viability measured after 3 days by CCK-8 assay. Type of data set: functional. The conditions noted are these: PANC-1, 72 h, time 3 day.
The next data set has as its system T-24. Put plainly: Growth inhibition of human T24 cells assessed as reduction in cell viability measured after 3 days by CCK-8 assay. It counts as functional. The conditions noted are these: T-24, 72 h, time 3 day.
Data set [5] has as its system KATO III stomach cancer cell line. Put plainly: Growth inhibition of human KATO III stomach cancer cell line assessed as reduction in cell viability measured after 3 days by CCK-8 assay. Type of data set: functional. The conditions noted are these: 72 h, time 3 day.
Data set [6] has as its system HeLa. Briefly: Growth inhibition of human HeLa cells assessed as reduction in cell viability measured after 3 days by CCK-8 assay. It counts as functional. To be noted: 72 h, time 3 day.
In a further data set the test system is SN12C. Briefly: Growth inhibition of human SN12C cells assessed as reduction in cell viability measured after 3 days by CCK-8 assay. To be noted: 72 h, time 3 day. It counts as functional.
Data set [7] concerns A549. Briefly: Antiproliferative activity against human A549 cells assessed as reduction in cell viability by MTS assay. It counts as functional, cell-based.
Data set [8] deals with HeLa. Briefly: Cytotoxicity against human HeLa cells assessed as reduction in cell growth by MTT assay. Type of data set: functional, cell-based.
The next data set deals with MDA-MB-231. Briefly: Cytotoxicity against human MDA-MB-231 cells assessed as cell growth inhibition by SRB assay. It counts as functional, cell-based. Background: In SRB staining, fixed cells bind dye roughly in proportion to their protein.
In data set [9] the test system is MCF7. Put plainly: Cytotoxicity against human MCF7 cells assessed as cell growth inhibition by SRB assay. It counts as functional, cell-based.
Data set [10] concerns HepG2. Briefly: Anticancer activity against human HepG2 cells assessed as reduction in cell viability measured after 72 hrs by MTT assay. Type of data set: functional, cell-based. The conditions noted are these: HepG2, 72 h.
The subject of data set [11] is HepG2. Briefly: Anticancer activity against human HepG2 cells assessed as reduction in cell viability by MTT assay. It counts as functional, cell-based.
For data set [12], the system named is MCF7. Briefly: Cytotoxicity against human MCF7 cells assessed as reduction in cell growth by MTT assay. Type of data set: functional, cell-based.
Data set [13] concerns HeLa. Put plainly: Antiproliferative activity against human HeLa cells assessed as reduction in cell viability. It counts as functional, cell-based.
In data set [14] the test system is HeLa. Put plainly: Antiproliferative activity against human HeLa cells assessed as inhibition of cell growth incubated for 72 hrs by MTT assay. Type of data set: functional, cell-based.
Data set [15] deals with ALK tyrosine kinase receptor (Homo sapiens, UniProt Q9UM73, G1202R). Put plainly: Inhibition of ALK G1202R mutant (unknown origin).
Data set [16] addresses ALK tyrosine kinase receptor (Homo sapiens, UniProt Q9UM73, L1196M). Put plainly: Inhibition of ALK L1196M mutant (unknown origin).
For data set [17], the target named is ALK tyrosine kinase receptor (Homo sapiens, UniProt Q9UM73, G1269A). Put plainly: Inhibition of ALK G1269A mutant (unknown origin).
Data set [18] deals with A549. Briefly: Antiproliferative activity against human A549 cells assessed as reduction in cell viability measured after 24 hrs by MTT assay. Type of data set: functional, cell-based. To be noted: A549, 24 h.

Each structure is given as a SMILES string. In brackets after ≈: the same amount, converted by molar mass.

Sequence of ALK tyrosine kinase receptor (Homo sapiens, UniProt Q9UM73, L1196M) (Q9UM73 19-1620 L1196M limits assumed): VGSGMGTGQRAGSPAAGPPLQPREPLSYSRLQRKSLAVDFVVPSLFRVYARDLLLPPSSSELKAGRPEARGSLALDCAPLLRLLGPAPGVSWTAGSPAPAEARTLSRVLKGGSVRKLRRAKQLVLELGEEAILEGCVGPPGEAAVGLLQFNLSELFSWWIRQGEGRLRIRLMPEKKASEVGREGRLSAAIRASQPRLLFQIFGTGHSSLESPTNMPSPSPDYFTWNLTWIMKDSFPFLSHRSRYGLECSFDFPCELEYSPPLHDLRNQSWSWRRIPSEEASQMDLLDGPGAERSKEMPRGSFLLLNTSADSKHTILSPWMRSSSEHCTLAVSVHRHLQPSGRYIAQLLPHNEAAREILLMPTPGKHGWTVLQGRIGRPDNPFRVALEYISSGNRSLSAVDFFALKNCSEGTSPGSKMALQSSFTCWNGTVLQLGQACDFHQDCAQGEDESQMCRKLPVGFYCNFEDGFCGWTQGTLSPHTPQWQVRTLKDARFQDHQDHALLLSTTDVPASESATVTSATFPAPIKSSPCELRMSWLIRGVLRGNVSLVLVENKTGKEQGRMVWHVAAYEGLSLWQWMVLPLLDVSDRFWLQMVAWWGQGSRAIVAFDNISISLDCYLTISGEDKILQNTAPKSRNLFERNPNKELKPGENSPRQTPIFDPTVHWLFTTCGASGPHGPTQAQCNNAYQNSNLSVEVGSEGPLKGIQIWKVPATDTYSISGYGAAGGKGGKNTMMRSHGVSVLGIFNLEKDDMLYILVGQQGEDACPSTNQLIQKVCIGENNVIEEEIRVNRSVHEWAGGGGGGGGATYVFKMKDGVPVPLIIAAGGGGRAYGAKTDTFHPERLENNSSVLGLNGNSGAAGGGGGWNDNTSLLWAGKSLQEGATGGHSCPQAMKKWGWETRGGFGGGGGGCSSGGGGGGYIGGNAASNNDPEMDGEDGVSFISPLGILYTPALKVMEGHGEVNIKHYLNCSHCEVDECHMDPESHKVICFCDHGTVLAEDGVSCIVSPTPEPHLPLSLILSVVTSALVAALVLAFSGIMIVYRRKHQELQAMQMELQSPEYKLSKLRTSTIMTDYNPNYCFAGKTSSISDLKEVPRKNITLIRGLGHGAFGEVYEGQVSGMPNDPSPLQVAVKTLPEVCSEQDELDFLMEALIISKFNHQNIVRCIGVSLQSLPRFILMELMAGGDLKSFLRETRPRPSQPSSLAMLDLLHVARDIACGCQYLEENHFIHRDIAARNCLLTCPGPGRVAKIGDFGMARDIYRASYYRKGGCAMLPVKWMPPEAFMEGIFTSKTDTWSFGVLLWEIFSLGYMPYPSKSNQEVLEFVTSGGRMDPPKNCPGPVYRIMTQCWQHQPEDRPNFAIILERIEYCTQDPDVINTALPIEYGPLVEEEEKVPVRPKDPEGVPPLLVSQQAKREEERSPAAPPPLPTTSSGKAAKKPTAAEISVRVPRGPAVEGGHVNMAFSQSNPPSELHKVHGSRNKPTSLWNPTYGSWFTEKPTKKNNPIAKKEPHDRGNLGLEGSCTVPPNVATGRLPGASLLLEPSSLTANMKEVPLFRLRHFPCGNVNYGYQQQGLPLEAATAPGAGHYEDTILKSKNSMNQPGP
Sequence of ALK tyrosine kinase receptor (Homo sapiens, UniProt Q9UM73, G1202R) (Q9UM73 19-1620 G1202R limits assumed): as the sequence (Q9UM73 19-1620 L1196M limits assumed) above, with M1178L, G1184R counted along it
Sequence of ALK tyrosine kinase receptor (Homo sapiens, UniProt Q9UM73, G1269A) (Q9UM73 19-1620 G1269A limits assumed): as the sequence (Q9UM73 19-1620 L1196M limits assumed) above, with M1178L, G1251A counted along it

Consider `O=c1cc(OCc2cc(-c3cc4c(cc3Cl)OCO4)no2)c2cc(Cl)ccc2o1`, for which the concentration for half-maximal inhibition (IC50) (as a rule, the concentration at which inhibition is half-maximal) was determined as 12800 nM in the data set on HepG2 [1] and 144000 nM in the data set with Vero.
As to `CO[C@@H]1O[C@H](Cn2nncc2COc2cc(=O)oc3ccccc23)[C@@H](O)[C@H](O)[C@H]1O`, the IC50 in the data set with HepG2 [2] is 107 µg/mL (≈ 255 µM).
In the case of `O=c1oc2ccccc2c2c1nc(-c1ccc(C(F)(F)F)cc1)c1occc12`, the values for the IC50 in the data set with B16-F10 and in the data set with DU-145 were 13000 nM and 20900 nM, respectively.
In the case of `O=C(CSc1nnc(NC(=O)c2ccccc2)s1)Nc1ccc2oc(=O)ccc2c1`, the results for the IC50 in the data set with MCF7 [3] and in the data set on HCT-116 were 54.9 µg/mL (≈ 125 µM) and 30.7 µg/mL (≈ 70 µM), respectively.
Turning to `COc1ccc(/C(C)=N/Nc2ncc(C(=O)c3cc4ccccc4oc3=O)s2)cc1`, the EC50 (usually the midpoint of the concentration-response curve) in the data set with DLD-1 was determined as 5790 nM.
Regarding `CCN(CC)c1ccc2cc(-c3nc4ccccc4n3C)c(=O)oc2c1`, the GI50 with K562, with AGS, in the data set with SK-OV-3, in the data set with WiDr, with HepG2 [4] and with BXPC-3 was less than 410 nM each time. Also, the GI50 (with SNU1; with OVCAR-8; with PANC-1; in the data set on T-24; in data set [5]; in the data set with HeLa [6]) was less than 410 nM each time. Besides, the GI50 (in general, the concentration at which growth is held to half of that of the control) in the data set with SN12C is less than 410 nM.
With `Nn1c(Cc2ccc(Cl)cc2)nn(CC(=O)NNC(=O)c2cc3cc(Cl)cc(Cl)c3oc2=O)c1=O`, in the data set with A549 [7], the IC50 amounted to 7.5 µg/mL (≈ 13.9 µM).
For `Cc1c(Cc2ccc(NC(=O)Nc3cccc(Cl)c3)nc2)c(=O)oc2cc(O)c(C(C)(C)C)cc12`, the IC50 in the data set on HeLa [8] was 2170 nM.
Turning to `Cc1c(-c2csc(N)n2)c(=O)oc2cc(OC(C)(C)C(=O)O)ccc12`, the results for the IC50 in the data set with MDA-MB-231 and in the data set with MCF7 [9] were 4840 nM and 2390 nM, respectively.
As to `O=C(OCCCOc1no[n+]([O-])c1S(=O)(=O)c1ccccc1)c1cc2ccccc2oc1=O`, in the data set with HepG2 [10], the IC50 stood at 3860 nM.
Consider `COc1ccc(C(=O)Nc2nnc(SCC(=O)Nc3ccc4oc(=O)ccc4c3)s2)cc1`, for which, in the data set on HepG2 [11], the IC50 was 24.9 µg/mL (≈ 53.1 µM).
Consider `Cc1c(Cc2ccc(NC(=O)Nc3ccc(Br)cc3)nc2)c(=O)oc2cc(O)c(C(C)(C)C)cc12`, for which the IC50 with MCF7 [12] is 2560 nM.
For `CCOC(=O)c1sc(N/N=C(\C)c2cc3cc(Br)ccc3oc2=O)nc1C`, the IC50 in the data set on HeLa [13] is 9 nM.
For the compound `Cc1nn(-c2ccccc2)c(=O)n1-n1c(-c2cc3ccccc3oc2=O)cs/c1=N\c1ccc(Cl)cc1`, the IC50 with HeLa [14] was determined as 210 nM.
As to `COc1ccc2nc(-c3cc4ccc(N5CCOCC5)cc4oc3=O)sc2c1`, the IC50 in data set [15] is 590 nM; in data set [16], 270 nM; in data set [17], 300 nM.
As to `O=C(/C(Cl)=N/Nc1ccc([N+](=O)[O-])cc1)n1c(-c2cc3ccccc3oc2=O)nc2ccccc21`, the IC50 in the data set with A549 [18] stood at 280 nM.
